Read-outs that look alike come from different tables or passages of the source.
How the values were obtained:
[1] = system: resistant gram-negative MBL-based bacteria; assay: MICx: lowest adjuvant concentration giving carbapenem MIC ≤2 mg/L; format: cell-based; conditions: for adjuvant effect at an inhibitor concentration of 25 mg/L: meropenem, K34-7 and K66-45
VIM-2 = VIM-2 (Escherichia coli, UniProt Q5U7L7); format: biochemical; conditions: purified VIM-2, PD-10 column; EDTA at 100 μM
Experimental: The eluent used was Chelex-treated HEPES 50 mM buffer, pH 7.5. […] In all experiments, 16 aliquots of 250 μL were taken from the PD-10 column runsout and enzyme activity was analysed. Enzyme activity was measured by adding Nitrocefin as a reporter substrate (final concentration of 50 μM).
To investigate if more extreme time-dependent and concentration-dependent conditions could restore enzyme activity, aliquots having final concentrations of 30 nM column-treated enzyme and 1000 μM Zn^2+ on ice and at room temperature over prolonged time.

[2] = zinc-binding ability; known/prior art value; cited from earlier work
K. pneumoniae K66-45 = format: cell-based; conditions: inhibitor 25 mg/L
Experimental: After plating and grown overnight at 37° C., only single colonies, ignoring any touching the edges of the plate, were counted.
10^9 CFU K66-45 (Mueller-Hinton broth, no selection) was plated and grown overnight, 37° C. Only single colonies, ignoring any touching the edges of the plate, were counted.

[3] = system: P. aeruginosa K34-7 (VIM-2); assay: Microbroth dilution MIC of carbapenem with/without inhibitor; format: cell-based
Experimental: (§1) • Plate bacterial strain(s) on appropriate media: • Gram-negative bacteria with ESBLs or carbapenemases: green agar plates with 100 mg/L ampicillin • Gram-negative bacteria without β-lactamases: green agar plates • Gram-positive bacteria (Staphylococci and Enterococci): blood agar plates • Incubate o.n. at 37° C.
(§2) (Should be used within 15 min of preparation). • Dilute the 0.5 McFarland suspension 1:100 into MH broth. […] Plate 10 μl of the dilution on MH agar plates (×2). Incubate o.n. at 37° C., count the colonies and calculate the final CFU/ml inoculum in the plate by multiplying the average number of colonies with 10000 and divide by 2. The final inoculum should be between 3-7×10^5 CFU/ml. • Add 50 μl of the prepared bacterial suspension to each well in the microtiter plate except negative growth control.
(§3) • Calculate the desired concentration-range and volume of the compounds/antibiotics in the assay. […] Dilute the stock solution in MH broth. Make subsequent 2-fold dilutions in MH broth of the desired concentrations if a concentration range is to be tested (remember the extra dilution factor in the assay plate). Always include extra volume for pipetting. Take into consideration stock solutions that are made in buffers that have an effect on bacterial growth (e.g. DMSO).

[4] = system: Klebsiella pneumoniae strain 50752501 harbouring NDM-1; assay: In vivo infection study in neutropenic mice; parameters: species or system Klebsiella pneumoniae; host NMRI mice; conditions: meropenem alone 33 mg/kg
Experimental: The purpose of this study was to investigate the synergy between a typical example of the present invention and a state of art carbapenem in a clinically relevant multiresistant Gram-negative bacterial strain harboring a metallo-β-lactamase in the treatment of live mice infected with the bacterial strain.
The mice were rendered neutropenic by injecting 0.5 ml cyclophosphamide solution intraperitoneally 4 days (approximately 200 mg/kg) and 1 day (approximately 100 mg/kg) prior to inoculation.
Fresh overnight colonies from a 5% Horse Blood Agar plate were suspended and diluted in sterile saline to approximately and 10^7 CFU/ml. Mice were inoculated intraperitoneally with 0.5 ml of the suspension. Approximately ½ hr prior to inoculation, mice were treated orally with 45 μl neurophen (20 mg ibuprofen/ml corresponding to approximately 30 mg/kg) as a pain relief.
Mice were treated subcutaneously in the neck region with.
Colony counts were determined from blood and peritoneal fluid at 1 and 5 hrs post inoculation. […] The mice were sacrificed immediately after blood sampling and a total of 2 ml sterile saline was injected i.p. and the abdomen gently massaged before it was opened and fluid sampled with a pipette. Each sample was then 10 fold serial diluted in saline and 20-μl spots, ranging from undiluted to a 10^6 dilution, were applied on agar plates in duplicates. […] All agar plates were incubated 18-22 hrs at 35° C. in ambient air.

[5] = system: resistant clinical isolate of Klebsiella pneumoniae harboring NDM-1; assay: Time-kill study with meropenem; format: cell-based; conditions: 4 mg/L meropenem alone; grows beyond starting CFU count
Experimental: Mueller-Hinton broth (MHB) was warmed from fridge temperature cold. […] A sample of Example 26 was dissolved in DMSO.
The 96-well plates were prepared using a multi-channel pipette, adding […] PBS to columns 2-9, or the required number of dilutions needed in the experiment. Each Inoculum was prepared by picking a single colony from the fresh plate that was disperged into 1 mL MHB, the loop was agitated to ensure all the colony comes off the loop. The tube was Vortex mixed, and a 100 μL aliquot was taken from the tube into 9.9 mL of MHB into the media bottle. […] The procedure was repeated for as many samples needed in the study. Aliquots of 5 mL inoculum were transferred to as many media bottles as needed, e.g. 4 mg/L MEM, 4 mg/L MEM+50 μM test substance, 4 mg/L MEM+100 μM test substance. Then […] aliquots were taken from each culture and added to Column 1 on the 96 well plate, e.g. culture 1: 50 μl into A1, […] into B1 etc. for time point 0 h. Then […] MEM was added into each bottle, followed by the required amount of test substance. The bottles were mixed gently to avoid formation of bubbles, and incubated in a secondary container at 37° C. at 180 rpm. Finally, serial dilutions were performed using multi-channel pipette taking 30 μL for column 1, adding to column 2, mixing well, repeating from column 2 to 3 with clean pipette tips.

[6] = system: K. pneumoniae K66-45 (NDM-1); assay: Microbroth dilution MIC of carbapenem with/without inhibitor; format: cell-based
Experimental: as §1, §2, §3

SMILES: COC(=O)[C@@H](C)NC(=O)[C@@H](C)NC(=O)Cn1cc(CN(Cc2ccccn2)Cc2ccccn2)nn1 [Example 194, Methyl (2-(4-((bis(pyridin-2-ylmethyl)amino)methyl)1H-1,2,3-triazol-1-yl)acetyl)-D-alanyl-D-alaninate, reference compound]
- adjuvant concentration range at which efficient [1]: 100 to 150 µM

SMILES: CN(C[C@H](O)[C@@H](O)[C@H](O)[C@H](O)CO)C(=O)c1ccc(CN(Cc2ccccc2)Cc2ccccn2)nc1 [Example 187, 6-((benzyl(pyridin-2-ylmethyl)amino)methyl)-N-methyl-N-((2S,3R,4R,5R)-2,3,4,5,6-pentahydroxyhexyl)nicotinamide]
- adjuvant effect at an inhibitor concentration of 25 mg/L [1]: completely abolishes the adjuvant effect

SMILES: CN(C[C@H](O)[C@@H](O)[C@H](O)[C@H](O)CO)C(=O)c1ccc(CN(Cc2ccccc2)Cc2ccccc2)nc1 [Example 185, 6-((dibenzylamino)methyl)-N-methyl-N-((2S,3R,4R,5R)-2,3,4,5,6-pentahydroxyhexyl)nicotinamide]
- adjuvant effect at an inhibitor concentration of 25 mg/L [1]: completely abolishes the adjuvant effect

SMILES: c1ccc(CN(CCN(Cc2ccccn2)Cc2ccccn2)Cc2ccccn2)nc1 [TPEN, N,N,N′,N′-tetrakis(2-pyridylmethyl) ethylenediamine, reference compound]
- irreversibility of VIM-2 inhibition (VIM-2): irreversibly inhibited

SMILES: O=C(NCCc1ccc(-n2cc(CN(Cc3ccccn3)Cc3ccccn3)nn2)cc1)[C@H]1O[C@H](O)[C@H](O)[C@@H](O)[C@H]1O [Example 101, (2S,3R,4S,5R,6S)—N-(4-(4-((Bis(pyridin-2-ylmethyl)amino)methyl)-1H-1,2,3-triazol-1-yl)phenethyl)-3,4,5,6-tetrahydroxytetrahydro-2H-pyran-2-carboxamide]
- adjuvant concentration range at which efficient [1]: 100 to 150 µM
- adjuvant effect at an inhibitor concentration of 25 mg/L [1]: less activity as an adjuvant

SMILES: c1ccc(CNCc2ccccn2)nc1 [DPA, dipicoylamine]
- pKd [2]: < 8

SMILES: c1ccc(CN(Cc2ccccn2)Cc2ccccn2)nc1 [TPA, N,N,N-tris(2-pyridylmethyl) amine]
- pKd [2]: about 12

SMILES: O=C(O)CN(CCN(CC(=O)O)CC(=O)O)CC(=O)O [EDTA, ethylenediaminetetra-acetic acid, reference compound]
- irreversibility of VIM-2 inhibition (VIM-2): did not inhibit VIM-2 irreversibly

SMILES: CN(C[C@H](O)[C@@H](O)[C@H](O)[C@H](O)CO)C(=O)Cc1ccc(NC(=O)CN(CCN(Cc2ccccn2)Cc2ccccn2)Cc2ccccn2)cc1 [Example 25, 2-(4-(2-((2-(bis(pyridin-2-ylmethyl)amino)ethyl)(pyridin-2-ylmethyl)amino)acetamido)phenyl)-N-methyl-N-(2,3,4,5,6-pentahydroxyhexyl)acetamide]
- RF - no of colonies (K. pneumoniae K66-45; MEM 2 mg/L): nc (n.c. = no colonies)
- RF - no of colonies (K. pneumoniae K66-45; MEM 4 mg/L): nc (n.c. = no colonies)
- RF - no of colonies (K. pneumoniae K66-45; MEM 8 mg/L): nc (n.c. = no colonies)

SMILES: OC1O[C@H](Cn2cc(CN(CCN(Cc3ccccn3)Cc3ccccn3)Cc3ccccn3)nn2)[C@H](O)[C@H](O)[C@H]1O (stereo partly shown) [Example 91]
- MIC of meropenem ([3]; P. aeruginosa K34-7 (VIM-2), inhibitor 50 μM): 1

SMILES: CN(C[C@H](O)[C@@H](O)[C@H](O)[C@H](O)CO)C(=O)c1ccc(CN(Cc2ccccn2)Cc2ccccn2)s1 [Example 182, 5-((bis(pyridin-2-ylmethyl)amino)methyl)-N-methyl-N-((2S,3R,4R,5R)-2,3,4,5,6-pentahydroxyhexyl)thiophene-2-carboxamide]
- adjuvant effect at an inhibitor concentration of 25 mg/L [1]: completely abolishes the adjuvant effect

SMILES: O=C(Cc1ccc(-n2cc(CN(Cc3ccccn3)Cc3ccccn3)nn2)cc1)N[C@@H](Cc1cccc(C(=O)O)c1)B(O)O [Example 157, (R)-3-(2-(2-(4-(4-((bis(pyridin-2-ylmethyl)amino)methyl)-1H-1,2,3-triazol-1-yl)phenyl)acetamido)-2-boronoethyl)benzoic acid]
- adjuvant effect at an inhibitor concentration of 25 mg/L [1]: less activity as an adjuvant

SMILES: COC(=O)c1ccc(CN(Cc2ccccn2)Cc2ccccn2)s1 [Example 180, Methyl 5-((bis(pyridin-2-ylmethyl)amino)methyl)thiophene-2-carboxylate]
- adjuvant effect at an inhibitor concentration of 25 mg/L [1]: completely abolishes the adjuvant effect

SMILES: C[C@@H](O)[C@H]1C(=O)N2C(C(=O)O)=C(S[C@@H]3CN[C@H](C(=O)N(C)C)C3)[C@H](C)[C@H]12 [meropenem, reference compound]
- lower CFU levels compared to vehicle treatment ([4]; blood): 2.5 log10
- lower CFU levels compared to vehicle treatment ([4]; peritoneal fluid): 2.2 log10
- time after which CFU starts to increase [5]: about 5 hours
- MIC value in K34-7 (MIC of carbapenem) ([3]; carbapenem alone, P. aeruginosa VIM-2): 32 to 64 µg/mL
- MIC ([6]; Klebsiella pneumoniae, read-out: MIC of MEM in the absence of Example 26, K. pneumoniae K66-45): > 32 µg/mL
- MIC Value in K66-45 (MIC of carbapenem) ([6]; carbapenem alone, K. pneumoniae NDM-1): 32 to 64 µg/mL

Source: patent US20210221791A1, “COMPOUNDS” (UNIVERSITETET I OSLO, priority 2016, published 2021)
